According to PMC8741604 (Translational Oncology, 2022):
Where a SMILES comes first, the peptide text is derived from it.

B1: murine PD-1: murine PD-1, literature affinity for human PD-L1 (protein, UniProt Q02242 25-288, looked up)
Programmed cell death protein …: LEVPNGPWRSLTFYPAWLTVSEGANATFTCSLSNWSEDLMLNWNRLSPSNQTEKQAAFCNGLSQPVQDARFQIIQLPNRHDFHMNILDTRRNDSGIYLCGAISLHPKAKIEESPGAELVVTERILETSTRYPSPSPKPEGRFQGMVIGIMSALVGIPVLLLLAWALAVFCSTSMSEARGAGSKDDTLKEEPSAAPVPSVAYEELDFQGREKTPELPTACVHTEYATIVFTEGLGASAMGRRGSADGLQGPRPPRHEDGHCSWPL

Key:
[1] = target: T1, human PD-L1 (Homo sapiens, UniProt Q9NZQ7); assay: Bio-layer interferometry binding to PD-L1; conditions: for Affinity for PD-L1 in words: bio-layer interferometry
T1 sequence (Q9NZQ7 19-290): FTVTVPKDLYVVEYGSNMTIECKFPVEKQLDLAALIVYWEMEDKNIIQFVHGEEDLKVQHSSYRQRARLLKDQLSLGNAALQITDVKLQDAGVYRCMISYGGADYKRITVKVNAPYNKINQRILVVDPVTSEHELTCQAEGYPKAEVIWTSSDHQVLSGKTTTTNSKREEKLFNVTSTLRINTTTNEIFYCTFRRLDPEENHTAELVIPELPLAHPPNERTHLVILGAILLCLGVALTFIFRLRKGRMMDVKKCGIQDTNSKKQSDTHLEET

[2] = tested on: CT26 murine colon carcinoma cells; assay: MTT cell viability without T cells; format: cell-based
[3] = tested on: CT26 murine colon carcinoma tumor in BALB/c mice; assay: Subcutaneous CT26 syngeneic tumor model, without pre-immunization; format: in vivo, mouse; conditions: PD-L1ip3 peptide alone, no pre-immunization, vs untreated CT26
[4] = tested on: CT26 murine colon carcinoma tumor in BALB/c mice; assay: Subcutaneous CT26 syngeneic tumor model, pre-treated with CT26 cell lysate; format: in vivo, mouse; conditions: PD-L1ip3 peptide only
[5] = target: T1, human PD-L1; conditions: cited from earlier work

Row | Molecule | Affinity for PD-L1 relative to natural partner PD-1 ([1]; KD by BLI compared with literature PD-1 KD) | Affinity for PD-L1 in words [1] | Cytotoxicity of the peptide (summary statement) ([2]; peptide alone, CT26 cells) | Tumor growth in words, peptide alone [3] | Tumor growth in words, peptide alone, pre-immunized [4] | CT26 cell viability at 72 h, 10 µg/ml ([2]; MTT, 10 µg/ml, 72 h, not significantly different from PBS) | Affinity of murine PD-1 for human PD-L1 versus human PD-1 [5]
1 | CC[C@H](C)[C@H](NC(=O)[C@H](CC(C)C)NC(=O)[C@@H]1CCCN1C(=O)[C@H](CCCCN)NC(=O)[C@H](CC(C)C)NC(=O)[C@H](CCCNC(=N)N)NC(=O)[C@@H](NC(=O)CN)[C@@H](C)O)C(=O)N[C@H](C(=O)N[C@@H](CS)C(=O)N[C@H](C(=O)N[C@@H](CCC(N)=O)C(=O)N[C@@H](Cc1c[nH]c2ccccc12)C(=O)N1CCC[C@H]1C(=O)NCC(=O)N[C@@H](CC(C)C)C(=O)O)C(C)C)[C@@H](C)CC [PD-L1ip3] (H-GTRLKPLIICVQWPGL-OH) | only a few times weaker | affinity in the micromolar range | negligible cytotoxicity | neither transduction of a scrambled sequence peptide gene by the adenovirus vector (Ad-PD-L1ip3SC) nor PD-L1ip3 in peptide form alone showed a statistically significant change in tumor growth | minimal effect on tumor growth | – | –
2 | VLIKIPWLRLPGCGTQ [PD-L1ip3SC] | – | very weak binding | – | – | – | slight decrease of cell viability | –
3 | B1 | – | – | – | – | – | – | shows similarity to that of human PD-1 for human PD-L1
